Here are results for 15 compounds from PubChem BioAssay (NCI).

Common to all, as to experiment: growth of human tumour cells (NCI), 48 h
Assay [1] concerns HCC-2998 colon.
Assay [2] concerns HOP-62 NSCLC.
In assay [3] the test system is ACHN renal.
For assay [4], the system named is SR leukemia.
Assay [5] has as its system SNB-19 CNS.
Assay [6] has as its system SK-MEL-5 melanoma.
The test system of assay [7] is EKVX NSCLC.
Assay [8] has as its system SK-OV-3 ovarian.
Assay [9] relates to MDA-MB-231 breast.
Assay [10] deals with CCRF-CEM leukemia.

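A five-concentration, 48-hour dose response in 96-well plates underlies each endpoint, interpolated linearly between surrounding concentrations. Here, GI50 denotes the concentration required for 50% inhibition of growth. The concentration for full growth arrest is given as TGI.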 Where only a bound is given, the exact number is not on record here.

Consider `O=C(c1ccccc1)[C@H]1Nc2ccc(Cl)cc2[C@H]2c3ccccc3O[C@H]21`, for which the TGI amounted to 31.5 µM in [1]; 32.5 µM in assay [2]; 28.7 µM in assay [3]; 66.6 µM in [4]; 29.3 µM in assay [5]; 27.5 µM in assay [6]. The compound also returned a TGI in assay [7] of 28.6 µM.
As for `Clc1ccc2c(NC3CCC(NC4CCCCC4)CC3)ccnc2c1` (stereo not given), the GI50 was 2.49 µM in assay [1]; 4.85 µM in assay [3]; 15.9 µM in assay [8]; 21.3 µM in [5]; 5.94 µM in assay [9]; 1.77 µM in assay [6]. Moreover, the GI50 in assay [7] was 4.55 µM. Moreover, the TGI was determined as 8.13 µM in assay [1]; 17.1 µM in [3]; 46.2 µM in assay [8]; 89.8 µM in assay [5]; 23.8 µM in assay [9]; 3.2 µM in [6]. For the same compound, in assay [7], the TGI came out at 43 µM.
Regarding `O=[N+]([O-])c1ccc(Cl)c(C2CC(c3cccc4ccccc34)=Nc3ccccc3S2=O)c1` (stereo not given), the TGI in [1] was above 50.3 µM; in assay [2], above 62.6 µM; in assay [3], 52.9 µM; in [4], 93.1 µM; in assay [8], above 100 µM; in [5], above 53.8 µM. Also, the TGI is 11.1 µM in assay [10], 40 µM in [6] and above 100 µM in assay [7].
Turning to `O=NN(CC1(O)OCC(O)C(O)C1O)C(Cc1c[nH]c2ccccc12)C(=O)O` (stereo not given), the TGI in assay [1], in assay [2], in [3], in assay [8], in assay [10] and in assay [6] was above 100 µM in each case. In addition, in assay [7], the TGI was above 100 µM.
On to `Cc1cc(C)c2c(c1)CSCc1cc(C)cc(C)c1-2`, for which the TGI in assay [1] was above 100 µM; in assay [2], 69.8 µM; in [3], above 100 µM; in assay [4] it was 47.4 µM; in assay [8], above 100 µM; in assay [5], above 100 µM. For the same compound, the TGI in [10] turned out to be 45.5 µM; in assay [6] it was 65 µM; in [7], 81.9 µM.
For `COC(=O)C1=C(C(=O)OC)C23CC4CCC2(C(=O)C1O3)C4(C)C` (stereo not given), the TGI is above 100 µM in assay [1]; above 100 µM in assay [3]; above 100 µM in assay [4]; above 100 µM in assay [8]; above 100 µM in assay [5]; 66.7 µM in assay [10]. The compound further displayed a TGI in assay [6] above 100 µM.
Take `O=C1CN=C(c2ccccc2)c2ccncc2N1`: the TGI in assay [1], in assay [2], in assay [3], in [4], in [8] and in assay [5] was above 100 µM throughout. The TGI in [10], in assay [6] and in assay [7] was above 100 µM each time.
With `CCOc1ccc2c(c1)[n+]([O-])c(C(N)=O)c(N)[n+]2[O-]`, the TGI in [2], in assay [3], in assay [4], in [8], in assay [5] and in [10] was above 100 µM in each case. Moreover, the TGI in assay [6] and in [7] was above 100 µM throughout.
Take `OC(c1ccccc1)c1c(-c2ccccc2)[nH]c(-c2ccccc2)c1C(O)c1ccccc1` (stereo not given): the TGI stood at 22.4 µM in assay [1]; 17.5 µM in assay [2]; 11.9 µM in assay [3]; 8.25 µM in assay [4]; 47.2 µM in assay [8]; 23.4 µM in assay [5]. Besides, the TGI in assay [10] came to 6.08 µM; in [6] it was 5.27 µM; in assay [7] it was 13.9 µM.
`CN(N=O)C(=O)NC(CCCCNC(=O)OCc1ccccc1)C(=O)OCc1ccccc1` (stereo not given): the TGI is above 100 µM in assay [1]; 79.6 µM in assay [2]; 32.3 µM in [3]; 58.4 µM in assay [4]; above 100 µM in [8]; above 100 µM in [5]. Besides, the TGI in assay [10] was 57.1 µM; in [6], 45.4 µM; in assay [7], above 100 µM.
Regarding `Cc1cnoc1/N=C1\C=C(Nc2oncc2C)C(=O)c2ccccc21`, the TGI in assay [1], in [2], in assay [3], in [4], in assay [8] and in assay [5] was above 100 µM throughout. The TGI in assay [10], in assay [6] and in assay [7] was above 100 µM each time.
As to `CCOP(=O)(OCC)C(C(=O)OC)C(=O)C(=O)Nc1cccc([N+](=O)[O-])c1` (stereo not given), the TGI in [1], in assay [2], in assay [3], in assay [4], in [8] and in assay [5] was above 100 µM throughout. Further, the TGI in [10], in [6] and in [7] was above 100 µM each time.
As to `CC1=NC2(C(=O)O)C3(C(=O)O)N=C(C)OC3(C(F)(F)F)C2(C(F)(F)F)O1` (stereo not given), the TGI in assay [1], in assay [2], in [3], in [4], in [8] and in assay [5] was above 100 µM each time. In addition, the TGI in assay [10] and in assay [7] was above 100 µM in each case.
With `NCCNCCNCc1c2ccccc2c(CNCCNCCN)c2ccccc12`, the TGI in [1], in [2], in [3], in assay [4], in assay [8] and in assay [10] was above 100 µM in each case. Further, the TGI in [6] and in assay [7] was above 100 µM throughout.
`CS(=O)(=O)N(CCC#N)c1ccc(/C=C2\N=C(c3ccccc3Cl)OC2=O)cc1`: the TGI in [1], in assay [2], in [3], in [8], in [5] and in assay [10] was above 100 µM each time. In addition, the TGI in assay [6] and in assay [7] was above 100 µM in each case.
